Experimental data: ChEMBL document CHEMBL5244246, “Recent advances in chemistry and bioactivity of marine cyanobacteria Moorea species” (Eur J Med Chem, 2020)
Converted amounts (≈) assume the structure as drawn.

How the values were obtained:
[1] = Toxicity in brine shrimp assessed as lethal dose; details: artemia salina
[2] = Toxicity in brine shrimp; details: artemia salina; read-out: ED50 (the source's name)
[3] = test system: HeLa; test: Cytotoxicity against human HeLa cells assessed as inhibition of cell growth incubated for 72 hrs by MTT assay; assay type: functional, cell-based
[4] = Toxicity in goldfish assessed as lethal dose; details: carassius auratus
[5] = test system: HCT-116; test: Cytotoxicity against human HCT-116 cells assessed as inhibition of cell growth; assay type: functional, cell-based
[6] = Toxicity in mouse assessed as lethal dose; details: in vivo
[7] = test system: PANC-1; test: Cytotoxicity against human PANC-1 cells; assay type: functional, cell-based
[8] = test system: N2a; test: Cytotoxicity against mouse Neuro2a cells assessed as inhibition of cell growth; assay type: functional, cell-based; details: Mus musculus, N2a
[9] = test system: NCI-H460; test: Cytotoxicity against human NCI-H460 cells; assay type: functional, cell-based
[10] = organism: Homo sapiens; test: Activation of Voltage-gated sodium channel (unknown origin) at 3 ug/ml incubated for 18 hrs by cell-based bioassay relative to control; details: dose 3.0 µg/ml
[11] = organism: Homo sapiens; test: Inhibition of Voltage-gated sodium channel (unknown origin) at 3 ug/ml incubated for 18 hrs by cell-based bioassay relative to control; details: dose 3.0 µg/ml
[12] = test system: Neuro2a; test: Inhibition of sodium channel in mouse Neuro2a cells; assay type: cell-based
[13] = test system: Echinoidea; test: Antiproliferative activity against sea urchin fertilized embryo assessed as inhibition of cell division; assay type: functional, organism-based
[14] = test system: U-251; test: Cytotoxicity against human U-251MG cells; assay type: functional, cell-based
[15] = test system: MCF7; test: Cytotoxicity against human MCF7 cells assessed as inhibition of cell growth; assay type: functional, cell-based
[16] = target: Tubulin (Homo sapiens) (UniProt P68371+Q9H4B7+P0DPH7+P68366+Q13509+Q71U36+P04350+Q3ZCM7+P07437+P68363+Q9BQE3+Q6PEY2+Q13885+Q9BVA1+Q9BUF5); test: Inhibition of colchicine binding to tubulin (unknown origin) assessed inhibition rate at 5 uM relative to control; assay type: protein-complex assay
[17] = test system: L1210; test: Cytotoxicity against mouse L1210 cells assessed as inhibition of cell growth; assay type: functional, cell-based
[18] = target: Tubulin; test: Inhibition of tubulin polymerization (unknown origin) by tubulin polymerization assay; assay type: protein-complex assay, Homo sapiens
[19] = test system: CA46; test: Cytotoxicity against human CA46 cells assessed as inhibition of cell growth; assay type: functional, cell-based
[20] = Antiproliferative activity against CHO-AUXB1 cells; assay type: toxicity, cell-based; details: Chinese hamster (Cricetulus griseus)
[21] = test system: Nitzschia amabilis; test: Growth inhibition of marine diatom assessed as inhibition; assay type: functional, organism-based
[22] = test system: HeLa; test: Cytotoxicity against human HeLa cells assessed as inhibition of cell growth incubated for 48 hrs by WST-8 colorimetric assay; assay type: functional, cell-based
[23] = test system: LoVo; test: Cytotoxicity against human LoVo cells; assay type: functional, cell-based
[24] = test system: KB; test: Cytotoxicity against human KB cells; assay type: functional, cell-based
[25] = Toxicity in brine shrimp assessed as lethality at 10 ppm relative to control; details: artemia salina, read-out: Activity
[26] = Toxicity in goldfish assessed as lethality at 5 ppm relative to control; details: carassius auratus, read-out: Activity
[27] = Toxicity in goldfish assessed as survival rate at 5 ppm measured after 90 mins relative to control; details: carassius auratus
[28] = test system: A549; test: Cytotoxicity against human A549 cells assessed as cell growth inhibition; assay type: functional, cell-based
[29] = test system: P388; test: Cytotoxicity against mouse P388 cells assessed as inhibition of cell growth; assay type: functional, cell-based
[30] = test system: PC-3; test: Cytotoxicity against human PC-3 cells assessed as cell growth inhibition; assay type: functional, cell-based
[31] = test system: HCT-8; test: Cytotoxicity against human HCT-8 cells assessed as cell growth inhibition; assay type: functional, cell-based
[32] = test system: SK-OV-3; test: Cytotoxicity against human SK-OV-3 cells assessed as cell growth inhibition; assay type: functional, cell-based
[33] = test system: Plasmodium falciparum; test: Antimalarial activity against Plasmodium falciparum assessed as growth inhibition; assay type: functional, organism-based
[34] = test system: Pseudomonas aeruginosa; test: Antibacterial activity against Pseudomonas aeruginosa PA01 assessed as inhibition of swarming at 100 ppm relative to control; assay type: functional
[35] = read-out: LD50 (the source's name)

Compound: O=CNC(CCCC#C/C=C\Cl)CCC/C=C\C=C(Cl)Cl (stereo unspecified)
- LC50 [1, 35]: 1.7 µg/mL
- LC50 [2]: 1 µg/mL (≈ 2.87 µM)

Compound: O=CNC(CCCC#CC=C(Cl)Cl)CCC/C=C/CC(Cl)Cl (stereo unspecified)
- LC50 [1, 35]: 1.7 µg/mL
- LC50 [2]: 1 µg/mL (≈ 2.6 µM)

Compound: CC/C(=C\C(=O)N(C)/C=C\CCC[C@H]1CC[C@H](C)C[C@@H](C)C(=O)N(C)[C@@H](CC(C)C)C(=O)O1)OC
- IC50 [3]: 2500 nM

Compound: C=C1CC(=O)N[C@@H](C)C(=O)N(C)[C@@H](C(C)C)C(=O)NCC(=O)O[C@@H](/C(C)=C/C(C)=C/C(C)(C)C)[C@@H]1C [ANTILLATOXIN]
- LC50 [4]: 100 nM

Compound: CC[C@H](C)[C@@H]1NC(=O)CNC(=O)c2csc(n2)[C@H](C(C)(C)O)OC(=O)C(C)(C)[C@H](CCCC(C)(Cl)Cl)OC(=O)c2csc1n2 [LYNGBYABELLIN A]
- IC50 [5]: 52.1 nM
- LD [6]: 2.4 mg/kg

Compound: CCCCC(C)C1C[C@@H](O)CCC[C@H](O)C[C@@H](O)C[C@@H](O)CCCC(O)CCCC(O)CCCC(O)CCCC(O)CCCC(O)CC(C)CC(=O)O1 (stereo partly specified)
- IC50 [5]: 9900 nM

Compound: CCCC[C@@H](C)C[C@@H](C)C(=O)N(C)[C@@H](Cc1ccc(OC)cc1)C(=O)N[C@H](C(=O)N(C)[C@H](C(=O)N1C[C@@H](O)C[C@H]1C(=O)N1C(=O)C=C[C@@H]1C)C(C)C)[C@@H](C)OC(C)=O
- IC50 [7]: 0.32 nM

Compound: CCCCCCCC[C@@H](C/C=C/CCC(=O)NC/C(=C/Cl)C1=CCC[C@@H](OC(C)=O)C1=O)OC
- IC50 [8]: 4000 nM
- IC50 [9]: 4000 nM
- Activity [10]: 19%
- inhibition [11]: 28%

Compound: O=CNC(CCCC#CC=C(Cl)Cl)CCCCCCC(Cl)Cl (stereo unspecified)
- LC50 [1, 35]: 1.7 µg/mL
- LC50 [2]: 1 µg/mL (≈ 2.58 µM)

Compound: C=C[C@@H]1CSC(C[C@@H](C)[C@@H](C)C[C@H](C)CCN(C)C(=O)[C@H](C)CC)=N1
- LC50 ([1]; read-out: LC50): 170 nM
- LC50 [4]: 700 nM
- INH [12]: 1 nM
- IC50 [13]: 25 nM

Compound: CCCC[C@@H](C)C[C@@H](C)C(=O)N(C)[C@@H](Cc1ccc(OC)cc1)C(=O)N[C@H](C(=O)N(C)[C@H](C(=O)N1CCC[C@H]1C(=O)N1C(=O)C=C[C@@H]1C)C(C)C)[C@@H](C)OC(C)=O
- IC50 [14]: 36.8 nM

Compound: C=CCC(CC/C=C/C=C/CC/C=C\C1CSC([C@@H]2C[C@@H]2C)=N1)OC (stereo partly specified)
- IC50 [15]: 340 nM
- inhibition [16]: 53%
- LC50 [1, 35]: 15600 nM

Compound: CC[C@H](C)[C@H]1C(=O)N2CCC[C@H]2C(=O)O[C@H](C(C)(C)C)C[C@@H](C)C/C=C/C2=N[C@@H](CCC(=O)N[C@@H](Cc3ccc(OC)cc3)C(=O)N(C)[C@@H](C)C(=O)N1C)CS2 [APRATOXIN E]
- IC50 [5]: 100 nM

Compound: C=CCC(CC/C(C)=C/C=C/CC/C=C\C1CSC([C@@H]2C[C@@H]2C)=N1)OC (stereo partly specified)
- IC50 [17]: 9 nM
- inhibition [16]: 94%
- IC50 [18]: 690 nM
- IC50 [19]: 200 nM
- LC50 ([1]; read-out: LC50): 0.003 µg/mL
- IC50 [20]: 0.0068 µg/mL (≈ 0.0182 µM)

Compound: CO[C@@H](CC[C@H](C)[C@@H](O)[C@@H](C)/C=C/C1=C(C(=O)O[C@@H]2CC(=O)O[C@@H]2C)C(=O)[C@H](C)CC1(C)C)c1cc(O)ccc1Br
- IC50 [17]: 4.6 µg/mL
- IC50 [21]: 1.2 µg/mL (≈ 1.89 µM)

Compound: CC[C@@H](C)[C@H]1C(=O)N2CCC[C@H]2C(=O)O[C@H](C(C)(C)C)C[C@@H](C)C[C@H](O)[C@H](C)C2=N[C@@H](/C=C(\C)C(=O)N[C@@H](Cc3ccc(OC)cc3)C(=O)N(C)[C@@H](C)C(=O)N1C)CS2
- IC50 [8]: 1000 nM
- IC50 [22]: 190 nM
- IC50 [23]: 0.36 nM
- IC50 [24]: 0.36 nM

Compound: C=CCCC/C(=C/Cl)CCC(C)/C=C/CCC(=O)NCC/C(=C\C(=O)N1C(=O)C=C[C@@H]1C)OC (stereo partly specified)
- IC50 [8]: 15000 nM
- IC50 [9]: 15000 nM
- mortality at 10 ppm [25]: 25%
- mortality at 5 ppm [26]: 100%

Compound: C#CCCC/C(=C/Cl)CCC(C)/C=C/CCC(=O)NCC/C(=C\C(=O)N1C(=O)C=C[C@@H]1C)OC (stereo partly specified)
- IC50 [8]: 15000 nM
- IC50 [9]: 15000 nM
- survival at 1.5 h, 5 ppm [27]: 0%

Compound: CC[C@@H](C)[C@@H]1NC(=O)CN(C)C(=O)[C@@H](Cc2ccccc2)N(C)C(=O)[C@H](C)NC(=O)[C@@H]([C@@H](C)CC)OC(=O)/C(C)=C/C[C@H](O)[C@@H](C)C[C@H]([C@@H](C)CC)OC(=O)[C@H](C)N(C)C1=O
- IC50 [28]: 2.1 nM
- IC50 [29]: 2.1 nM
- IC50 [30]: 2.1 nM
- IC50 [31]: 2.1 nM
- IC50 [32]: 2.1 nM
- IC50 [33]: 290 nM
- inhibition at 100 µg/mL [34]: 49%
